Experimental data as given in the NIST ThermoML archive (doi:10.1021/je049888n).

Assays:
[1] = xn = mol fraction of the nth substance listed

C1CCNCC1 [piperidine]
Conditions	surface tension liquid-gas [mN/m]
293.15 K	30.11
298.15 K	29.56
303.15 K	29.09
313.15 K	27.9
323.15 K	27

O [water] + C1CCNCC1
[1], x2 = 0
Conditions	surface tension liquid-gas [mN/m]
293.15 K	72.7
298.15 K	72.05
303.15 K	71.28
313.15 K	69.32
323.15 K	67.88

C1CCNC1 [pyrrolidine] + O
surface tension liquid-gas [mN/m], [1]
Conditions	293.15 K	298.15 K	303.15 K	313.15 K	323.15 K
x1 = 0.0156	55.61	55.32	54.98	54.1	53.26
x1 = 0.0564	46.07	45.61	45.21	44.76	43.89
x1 = 0.1082	41.7	41.19	40.92	40.19	39.17
x1 = 0.1792	39.7	39.74	39	38.01	37.3
x1 = 0.3039	37.53	37.09	36.69	35.68	34.74
x1 = 0.4212	35.97	35.45	35.11	34.44	33.15
x1 = 0.5219	34.87	34.4	33.99	32.97	32.07
x1 = 0.6093	33.89	33.54	33.07	31.95	31.05
x1 = 0.6858	32.99	32.59	32.39	31.11	30.25
x1 = 0.7844	32.1	31.45	31.3	30.4	29.2
x1 = 0.9161	31.07	30.42	30.13	29.02	27.83
x1 = 1	30.27	29.75	29.02	27.87	26.75

C1CCNC1 [pyrrolidine]
Conditions	surface tension liquid-gas [mN/m]
293.15 K	30.27
298.15 K	29.75
303.15 K	29.02
313.15 K	27.87
323.15 K	26.75

O [water] + C1CCNC1
[1], x2 = 0
Conditions	surface tension liquid-gas [mN/m]
293.15 K	72.7
298.15 K	72.05
303.15 K	71.28
313.15 K	69.32
323.15 K	67.88

C1CCNCC1 [piperidine] + O
surface tension liquid-gas [mN/m], [1]
Conditions	293.15 K	298.15 K	303.15 K	313.15 K	323.15 K
x1 = 0.0076	57.25	56.85	56.45	55.56	54.62
x1 = 0.013	43.84	43.58	43.32	41.58	41.41
x1 = 0.0228	38.56	38.27	37.98	37.43	37.18
x1 = 0.0458	37.78	37.2	36.62	35.76	34.37
x1 = 0.092	35.44	34.99	34.54	33.69	32.61
x1 = 0.1542	34.34	34.02	33.7	32.67	31.8
x1 = 0.2672	33.9	33.39	32.88	32.1	31.26
x1 = 0.378	33.27	32.75	32.23	31.42	30.4
x1 = 0.5657	31.38	31.15	30.92	30.01	29.2
x1 = 0.7524	31.02	30.42	29.82	29.01	28.1
x1 = 1	30.11	29.56	29.09	27.9	27
